The test system of experiment [1] is S. aureus N315 (MRSA isolate). Nature of the experiment: Minimum inhibitory and bactericidal concentration determination. As to conditions: for change of MIC in minimal media compared to rich media: S. aureus N315; for MIC: Staphylococcus aureus, MRSA; for MIC S. aureus N315: Table 2; for MBC S. aureus N315: Table 2, value in parentheses. Format: cell-based, Staphylococcus aureus. Here is the method:
(§1) The 96-well plate was organized as follows. Media (100 μl) were added to all wells.

Experiment [2] concerns PKZRSA1 (PKZ18-22-resistant MRSA). Nature of the experiment: MICs against PKZ18-22-resistant mutant compared to WT MRSA. Format: cell-based, Staphylococcus aureus. Here is the method:
as §1

The test system of a further experiment is glyQS T-box. Nature of the experiment: qRT-PCR transcriptional read-through of T-box-regulated glyQS (confirmation of inhibition of T-box mechanism). To be noted: for T-box-controlled expression of glyQS (termination of read-through): B. subtilis 1A5, increasing concentrations, minimal media; for T-Box targeting: confirmation of inhibition of T-box mechanism from qRT-PCR assay; for inhibition of read-through compared with PKZ18: 4 μg/ml of each drug, side by side in same biological replicate. Format: cell-based, Bacillus subtilis 1A5. From the text:
Sample preparation of RNA and cDNA.

The next experiment has as its system E. coli. Nature of the experiment: Minimum inhibitory and bactericidal concentration determination, Gram-negative control. Format: cell-based, Escherichia coli. As to conditions: for MBC E. coli: value in parentheses. Here is the method:
as §1

The next experiment deals with S. aureus N315. Nature of the experiment: Checkerboard assay and FIC. Format: cell-based, Staphylococcus aureus. Here is the method:
S. aureus N315 cultures were prepared identically to MIC determination in BHI media. The co-MICs were determined using the checkerboard method. In short, antibiotics to be tested with PKZ18 analogs were diluted 2-fold top to bottom (A to G rows) in a 96-well plate, PKZ18 analogs were diluted 2-fold right to left (columns 11-2 of the 96-well plate), and column 12 was used for vector, media, and growth controls. Each drug was therefore tested by itself and with every dilution of the other drug.
The synergistic and additive interactions were determined based on determined cutoffs using the equation
[formula] where MICAB is the lowest possible concentration of both drugs combined where there is no growth, and MICA and MICB are the MIC values of the individual drugs. For a synergistic drug interaction, the fractional inhibitory concentration (FIC) should be below 0.5, additive or indifferent effects are considered in an FIC range of 0.5 to <4, and an FIC value above 4 is considered antagonistic.

Experiment [3] concerns T-box controlled genes in MRSA. Nature of the experiment: RNA sequencing of MRSA grown in minimal media. Format: cell-based, Staphylococcus aureus. To be noted: 4 μg/ml, control antibiotic.
A further experiment concerns B. subtilis 168. Nature of the experiment: Minimum inhibitory concentration determination. Format: cell-based, Bacillus subtilis. Here is the method: as §1
The subject of the next experiment is S. aureus N315 (MRSA). Briefly: Antibiotic resistance frequency (fluctuation assay). As to conditions: MRSA plated on 64 μg/ml PKZ18-22 or 10 μg/ml gentamicin. Format: cell-based, Staphylococcus aureus. The source says:
Gentamicin on BHI agar was used as a control.

Converted amounts (≈) assume the structure as drawn. Like-named read-outs stand apart in the source and are kept apart here. Marks after values point to notes of the source that are not given here.

The source of these data is patent US11617741B1, “Method for inhibiting growth of bacteria” (priority 2021, dated 2023).

As to `C/C(=C\C(=O)OCCCCCCCCC(=O)O)C[C@@H]1OC[C@H](C[C@@H]2O[C@H]2[C@@H](C)[C@H](C)O)[C@@H](O)[C@H]1O` [Mupirocin, reference compound], the “change of MIC in minimal media compared to rich media” value in experiment [1] was “increased MICs”. Moreover, the MIC in experiment [1] (S. aureus N315, minimal media, read-out: MIC against S. aureus in minimal media) was found to be 1 µg/mL (≈ 2 µM); in experiment [1] (S. aureus N315, rich media, read-out: MIC against S. aureus in rich media), 0.25 µg/mL (≈ 0.499 µM). In addition, the “change in the MIC between WT and PKZRSA1” value in experiment [2] was “no change”.
As for `CC(C)c1ccc(-c2csc(NC(=O)C3C4CCC(C4)C3C(=O)O)n2)cc1` (stereo not shown) [PKZ18-21], the “T-box-controlled expression of glyQS (termination of read-through)” value (“T-box-controlled expression of glyQS” for short) with glyQS T-box is on record as “inhibited”. Besides, in the experiment with glyQS T-box (Table 1), the T-Box targeting entry is given as “Yes”. Further, the T-Box targeting result with glyQS T-box (Table 2) was “Yes”. In experiment [1], the “MIC S. aureus N315” value was 64 µg/mL (≈ 166 µM) and the “MBC S. aureus N315” value is > 256 µg/mL. Besides, in the experiment with E. coli, the MIC E. coli is > 256 µg/mL and the MBC E. coli was > 256 µg/mL.
As for `CCCCc1ccc(-c2nc(NC(=O)C3C4C=CC(C4)C3C(=O)O)sc2C)cc1` (stereo not shown) [PKZ18-52], the “fractional inhibitory concentration FIC” value in the experiment with S. aureus N315 (with gentamicin) came to 0.38. In the experiment on glyQS T-box, the “inhibition of read-through compared with PKZ18” value is on record as “significantly better than PKZ18” and the “T-box-controlled expression of glyQS” value is “inhibited”. Moreover, in the experiment on glyQS T-box (Table 1), the T-Box targeting result is on record as “Yes”. The T-Box targeting entry in the experiment with glyQS T-box (Table 2) is “Yes”. Moreover, the “MIC against S. aureus in minimal media” value in experiment [1] (S. aureus N315, minimal media) is 16^b μg/ml. For the same compound, the “MIC against S. aureus in rich media” value in experiment [1] (S. aureus N315, rich media) is given as 16-32^b μg/ml. Further, in experiment [1], the “MIC S. aureus N315” value worked out at 32 µg/mL (≈ 77.9 µM) and the “MBC S. aureus N315” value came out at 64 µg/mL (≈ 156 µM). Moreover, in the experiment with E. coli, the MIC E. coli was > 256 µg/mL and the MBC E. coli was > 256 µg/mL.
As for `Cc1sc(NC(=O)C2C3C=CC(C3)C2C(=O)O)nc1-c1ccc(CC(C)C)cc1` (stereo not shown) [PKZ18-53], in the experiment on S. aureus N315 (with ampicillin), the “fractional inhibitory concentration FIC” value is given as 0.75. For the same compound, in the experiment with S. aureus N315 (with chloramphenicol), the “fractional inhibitory concentration FIC” value is recorded as 0.75. The “fractional inhibitory concentration FIC” value with S. aureus N315 (with gentamicin) was 0.38. Further, in the experiment with glyQS T-box, the “inhibition of read-through compared with PKZ18” value is listed as “significantly better than PKZ18” and the “T-box-controlled expression of glyQS” value is “inhibited”. In addition, the T-Box targeting entry in the experiment on glyQS T-box (Table 1) is “Yes”. Moreover, the T-Box targeting result with glyQS T-box (Table 2) was “Yes”. The “fold reduction in MIC in minimal compared to rich media” value in experiment [1] (MRSA strain S. aureus N315) worked out at 2 fold. Further, the “MIC against S. aureus in minimal media” value in experiment [1] (S. aureus N315, minimal media) is 16^b μg/ml. Also, the “MIC against S. aureus in rich media” value in experiment [1] (S. aureus N315, rich media) was 32^b μg/ml. In addition, in experiment [1], the “MIC S. aureus N315” value turned out to be 32 µg/mL (≈ 77.9 µM) and the “MBC S. aureus N315” value is 64 µg/mL (≈ 156 µM). Besides, in the experiment on E. coli, the MIC E. coli is > 256 µg/mL and the MBC E. coli was > 256 µg/mL.
In the case of `CCCCc1ccc(-c2nc(NC(=O)C3C4CCC(O4)C3C(=O)O)sc2C)cc1` (stereo not shown) [PKZ18-54], the T-Box targeting result in the experiment with glyQS T-box (Table 1) is “No”. In addition, the T-Box targeting result with glyQS T-box (Table 2) is reported as “No”. In experiment [1], the “MIC S. aureus N315” value was 128 µg/mL (≈ 309 µM) and the “MBC S. aureus N315” value stood at 256 µg/mL (≈ 618 µM). Further, in the experiment with E. coli, the MIC E. coli is > 256 µg/mL and the MBC E. coli was > 256 µg/mL.
For the compound `COc1ccc(-c2csc(NC(=O)C3C4CCC(C4)C3C(=O)O)n2)cc1` (stereo not shown) [PKZ18-55], in the experiment on glyQS T-box (Table 1), the T-Box targeting entry was “No”. The T-Box targeting entry in the experiment on glyQS T-box (Table 2) was “No”. Also, in experiment [1], the MIC S. aureus N315 was > 256 µg/mL and the MBC S. aureus N315 is > 256 µg/mL. Moreover, in the experiment with E. coli, the MIC E. coli was > 256 µg/mL and the MBC E. coli was > 256 µg/mL.
As to `CCCc1ccc(-c2nc(NC(=O)C3C4CCC(O4)C3C(=O)O)sc2C)cc1` (stereo not shown) [PKZ18-56], the T-Box targeting entry with glyQS T-box (Table 1) was “No”. The T-Box targeting entry in the experiment on glyQS T-box (Table 2) was “No”. In experiment [1], the MIC S. aureus N315 is > 256 µg/mL and the MBC S. aureus N315 is > 256 µg/mL. In the experiment on E. coli, the MIC E. coli is > 256 µg/mL and the MBC E. coli was > 256 µg/mL.
`Cc1sc(NC(=O)C2C3CCC(O3)C2C(=O)O)nc1-c1ccc(CC(C)C)cc1` (stereo not shown) [PKZ18-57]: the T-Box targeting result in the experiment with glyQS T-box (Table 1) is on record as “No”. Besides, the T-Box targeting result with glyQS T-box (Table 2) is reported as “No”. Moreover, in experiment [1], the MIC S. aureus N315 is > 256 µg/mL and the MBC S. aureus N315 is > 256 µg/mL. Further, in the experiment with E. coli, the MIC E. coli is > 256 µg/mL and the MBC E. coli was > 256 µg/mL.
For the compound `CCc1ccc(-c2csc(NC(=O)C3C4CCC(C4=C(C)C)C3C(=O)O)n2)cc1` (stereo not shown) [PKZ18-58], the T-Box targeting result in the experiment on glyQS T-box (Table 1) and in the experiment on glyQS T-box (Table 2) was “No” throughout.
`O=C(N[C@H](CO)[C@H](O)c1ccc([N+](=O)[O-])cc1)C(Cl)Cl` [chloramphenicol]: the “fold lower MIC for PKZRSA1 than WT MRSA” value in experiment [2] is listed as 2 fold.
Regarding `CCCCCCCCCC(=O)N[C@@H](Cc1c[nH]c2ccccc12)C(=O)N[C@H](CC(N)=O)C(=O)N[C@@H](CC(=O)O)C(=O)N[C@@H]1C(=O)NCC(=O)N[C@@H](CCCN)C(=O)N[C@@H](CC(=O)O)C(=O)N[C@H](C)C(=O)N[C@@H](CC(=O)O)C(=O)NCC(=O)N[C@H](CO)C(=O)N[C@@H]([C@H](C)CC(=O)O)C(=O)N[C@@H](CC(=O)c2ccccc2N)C(=O)O[C@@H]1C` [daptomycin, reference compound], in experiment [3], the “expression and read-through of T-box-controlled genes” value was “lower than untreated for many of the genes”; the “initiation of T-box-controlled genes” value was “did not significantly affect”. In addition, the “change in the MIC between WT and PKZRSA1” value in experiment [2] is listed as “no change”.
Regarding `Cc1onc(-c2ccccc2)c1C(=O)N[C@@H]1C(=O)N2[C@@H]1SC(C)(C)[C@@H]2C(=O)O` [oxacillin], the “fold increase in MIC against PKZRSA1 compared to WT” value in experiment [2] was determined as 16 fold.
On to `CO[C@H]1/C=C/O[C@@]2(C)Oc3c(C)c(O)c4c(O)c(c(/C=N/N5CCN(C)CC5)c(O)c4c3C2=O)NC(=O)/C(C)=C\C=C\[C@H](C)[C@H](O)[C@@H](C)[C@@H](O)[C@@H](C)[C@H](OC(C)=O)[C@@H]1C` [rifampin], for which the “change in the MIC between WT and PKZRSA1” value in experiment [2] was “no change”.
Gentamicin [reference compound]: in the experiment with S. aureus N315 (in combination with PKZ18-22), the “fold decrease in the MIC of gentamicin” value was determined as 8 fold. Further, in the experiment with B. subtilis 168 (minimal media), the “MIC against B. subtilis 168 in minimal media” value is 0.25 µg/mL. Further, the “MIC against B. subtilis 168 in rich media” value with B. subtilis 168 (rich media) was 0.125 µg/mL. Besides, in experiment [1], the “change of MIC in minimal media compared to rich media” value was “increased MICs”. The “MIC against S. aureus in minimal media” value in experiment [1] (S. aureus N315, minimal media) is on record as 2.0^b μg/ml. For the same compound, in experiment [1] (S. aureus N315, rich media), the “MIC against S. aureus in rich media” value is on record as 0.5^b μg/ml. Also, the resistance frequency with S. aureus N315 (MRSA) was 1.6×10^−7. Moreover, the “fold increase in MIC against PKZRSA1 compared to WT” value in experiment [2] was found to be 2 fold.
